Measurements: US7932387B2, “Crystalline forms of rosuvastatin calcium salt” (BASF SE, priority 2005, dated 2011)
Structures can show the parent of a compound that is named as a salt.

Columns and labels:
[1] = Solubility in water and in physiological liquids (comparison of solid forms); format: physicochemical; details: compared with form A; qualitative statement
[2] = Chemical and physical stability (comparison of solid forms); format: physicochemical; details: compared with the amorphous form; qualitative statement

In the case of `CC(C)c1nc(N(C)S(C)(=O)=O)nc(-c2ccc(F)cc2)c1/C=C/[C@@H](O)C[C@@H](O)CC(=O)O` [Form B, bis[(E)-7-[4-(4-fluorophenyl)-6-isopropyl-2-[methyl(methylsulfonyl)amino]pyrimidin-5-yl](3R,5S)-3,5-dihydroxyhept-6-enoic acid] calcium salt], the “solubility in water and in physiological liquids” value [1] is reported as “better soluble in water and in physiological liquids than form A” and the “chemical and physical stability” value [2] is reported as “chemically and physically more stable than the amorphous form”.
